Experiments:
[1] = target: T1, AuroraA-TPX2 (Homo sapiens, UniProt O14965); experiment: AuroraA-TPX2 Homogeneous Time Resolved Fluorescent (HTRF) kinase assay; assay type: biochemical; conditions: average; read-out: AurA_IC50_IP (uM Avg)
T1 construct: 20 μL of AuroraA-TPX2 KD GST for a final volume of about 41 μL; GST
T1 sequence (O14965 133-383 limits assumed): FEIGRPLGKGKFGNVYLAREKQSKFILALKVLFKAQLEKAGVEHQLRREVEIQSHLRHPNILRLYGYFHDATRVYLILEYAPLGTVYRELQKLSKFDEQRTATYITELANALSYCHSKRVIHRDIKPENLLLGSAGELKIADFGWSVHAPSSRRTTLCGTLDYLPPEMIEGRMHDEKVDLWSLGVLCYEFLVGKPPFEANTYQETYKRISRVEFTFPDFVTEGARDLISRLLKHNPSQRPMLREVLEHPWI
T1 sequence (Q9ULW0 1-43 partner limits assumed): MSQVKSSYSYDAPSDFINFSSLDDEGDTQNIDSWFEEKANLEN
Summary of the method: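 HTRF read-out (Eu 615 nm to APC 655 nm) of phosphorylated biotin-PLK, detected with 0.02 nM europium anti-phosphoPLK antibody and 0.0005 mg/mL SA-APC after overnight equilibration.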

[2] = target: T2, AuroraB (Homo sapiens, UniProt Q96GD4); experiment: AuroraB Homogeneous Time Resolved Fluorescent (HTRF) kinase assay; assay type: biochemical; conditions: average; read-out: AurB_IC50_IP (uM Avg)
T2 construct: 20 μL of AuroraB FL H is for a final volume of 41 μL; His
T2 sequence (Q96GD4 whole entry): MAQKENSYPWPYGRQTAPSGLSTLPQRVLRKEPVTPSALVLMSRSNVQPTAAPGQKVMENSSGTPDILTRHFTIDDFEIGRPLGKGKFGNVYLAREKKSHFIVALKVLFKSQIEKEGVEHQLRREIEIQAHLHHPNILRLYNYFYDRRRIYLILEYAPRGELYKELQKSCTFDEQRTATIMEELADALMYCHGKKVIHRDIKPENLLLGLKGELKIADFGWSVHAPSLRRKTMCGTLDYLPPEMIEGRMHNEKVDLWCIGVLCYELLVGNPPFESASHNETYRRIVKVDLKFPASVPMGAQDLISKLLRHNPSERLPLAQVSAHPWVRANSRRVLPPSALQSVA
Summary of the method: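 Read-out is time-resolved FRET between europium anti-phospho-H3 antibody and streptavidin-APC, added in EDTA buffer to stop the reaction and equilibrated about 60 min (ex 320, em 615 and 655 nm). Preceding reaction: ~90 min, full-length enzyme, ATP, 0.1 μM biotin-Histone H3 substrate, Mg/Mn HEPES buffer pH 7.5.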

Structure (SMILES) | IC50 [1] | IC50 [2]
CCc1cc(-c2cccc(Cl)c2)nnc1Nc1ccc(Oc2ccnc3cc(OC)cnc23)cc1 [compound 335, 6-(3-chlorophenyl)-4-ethyl-N-(4-(7-methoxy-1,5-naphthyridin-4-yloxy)phenyl)pyridazin-3-amine] | 0.062 µM | 0.021 µM
Cc1csc(-c2nnc(Nc3ccc(Sc4ccnc5cccnc45)cc3)c3ccccc23)c1 [compound 336, N-(4-(1,5-naphthyridin-4-ylthio)phenyl)-4-(4-methylthiophen-2-yl)phthalazin-1-amine] | 0.019 µM | 0.01 µM
COc1cnc2c(Oc3ccc(Nc4nnc(N5CCSCC5)c5ccccc45)cc3)ccnc2c1 [compound 337, N-(4-(7-methoxy-1,5-naphthyridin-4-yloxy)phenyl)-4-thiomorpholinophthalazin-1-amine] | 0.076 µM | 0.015 µM
Cn1cc(-c2ccc3c(Oc4ccc(Nc5nnc(-c6ccccc6)c6ccccc56)cc4)ccnc3c2)cn1 [compound 338, N-(4-(7-(1-methyl-1H-pyrazol-4-yl)quinolin-4-yloxy)phenyl)-4-phenylphthalazin-1-amine] | 0.005 µM | 0.009 µM
c1ccc(-c2nnc(Nc3ccc(Oc4ccnc5cc(-c6ccsc6)ccc45)cc3)c3ccccc23)cc1 [compound 339, 4-phenyl-N-(4-(7-(thiophen-3-yl)quinolin-4-yloxy)phenyl)phthalazin-1-amine] | 0.021 µM | 0.028 µM
Fc1cc(F)c2c(Sc3ccc(Nc4nnc(-c5ccc(Cl)cc5)c5ccccc45)cc3)ccnc2c1 [compound 342, 4-(4-chlorophenyl)-N-(4-(5,7-difluoroquinolin-4-ylthio)phenyl)phthalazin-1-amine] | 0.189 µM | 0.045 µM
c1ccc(-c2nnc(Nc3ccc(Oc4ccnc5cc(-c6ccoc6)ccc45)cc3)c3ccccc23)cc1 [compound 343, N-(4-(7-(furan-3-yl)quinolin-4-yloxy)phenyl)-4-phenylphthalazin-1-amine] | 0.024 µM | 0.008 µM
Cc1ccc(-c2ccc3c(Oc4ccc(Nc5nnc(-c6ccccc6)c6ccccc56)cc4)ccnc3c2)o1 [compound 344, N-(4-(7-(5-methylfuran-2-yl)quinolin-4-yloxy)phenyl)-4-phenylphthalazin-1-amine] | 0.057 µM | 0.022 µM
COc1ccc2c(Oc3ccc(Nc4nnc(-c5ccc(Cl)cc5)c5ccccc45)cc3)ccnc2c1 [compound 345, 4-(4-chlorophenyl)-N-(4-(7-methoxyquinolin-4-yloxy)phenyl)phthalazin-1-amine] | 0.04 µM | 0.024 µM
COc1cnc2c(Sc3ccc(Nc4nnc(N5CCCCC5)c5ccccc45)cc3)ccnc2c1 [compound 346, N-(4-(7-methoxy-1,5-naphthyridin-4-ylthio)phenyl)-4-(piperidin-1-yl)phthalazin-1-amine] | 0.044 µM | 0.024 µM
COc1ccc2nccc(Oc3ccc(Nc4nnc(-c5ccccc5)c5ccccc45)cc3)c2n1 [compound 347, N-(4-(6-methoxy-1,5-naphthyridin-4-yloxy)phenyl)-4-phenylphthalazin-1-amine] | 0.067 µM | 0.01 µM
COc1ccc2nccc(Sc3ccc(Nc4nnc(-c5ccc(Cl)cc5)c5ccccc45)cc3)c2n1 [compound 348, 4-(4-chlorophenyl)-N-(4-(6-methoxy-1,5-naphthyridin-4-ylthio)phenyl)phthalazin-1-amine] | 0.057 µM | 0.023 µM
COc1cnc2c(Oc3ccc(Nc4nnc(-c5cc(C)no5)c5ccccc45)cc3)ccnc2c1 [compound 350, N-(4-(7-methoxy-1,5-naphthyridin-4-yloxy)phenyl)-4-(3-methylisoxazol-5-yl)phthalazin-1-amine] | 0.04 µM | 0.007 µM
N#Cc1cc2nccc(Sc3ccc(Nc4nnc(-c5ccc(Cl)cc5)c5ccccc45)cc3)c2s1 [compound 351, 7-(4-(4-(4-chlorophenyl)phthalazin-1-ylamino)phenylthio)thieno[3,2-b]pyridine-2-carbonitrile] | 0.008 µM | 0.003 µM
c1ccc(-c2nnc(Nc3ccc(Sc4ccnc5[nH]ncc45)cc3)c3ccccc23)cc1 [compound 352, N-(4-(1H-pyrazolo[3,4-b]pyridin-4-ylthio)phenyl)-4-phenylphthalazin-1-amine] | 0.074 µM | 0.001 µM
COc1cc2nccc(Sc3ccc(Nc4nnc(-c5ccccc5)c5ccccc45)cc3)c2cn1 [compound 353, N-(4-(7-methoxy-1,6-naphthyridin-4-ylthio)phenyl)-4-phenylphthalazin-1-amine] | 0.058 µM | 0.008 µM
COc1cc2nccc(Sc3ccc(Nc4nnc(-c5ccc(Cl)cc5)c5ccccc45)cc3)c2cn1 [compound 354, 4-(4-chlorophenyl)-N-(4-(7-methoxy-1,6-naphthyridin-4-ylthio)phenyl)phthalazin-1-amine] | 0.025 µM | 0.009 µM
c1ccc(-c2nnc(Nc3ccc(Sc4ccnc5ccsc45)cc3)c3ccccc23)cc1 [compound 355, 4-phenyl-N-(4-(thieno[3,2-b]pyridin-7-ylthio)phenyl)phthalazin-1-amine] | 0.241 µM | 0.006 µM
COc1cnc2c(Sc3ccc(Nc4nnc(-c5ccc(F)cc5)c5ccccc45)cc3)ccnc2c1 [compound 356, 4-(4-fluorophenyl)-N-(4-(7-methoxy-1,5-naphthyridin-4-ylthio)phenyl)phthalazin-1-amine] | 0.036 µM | 0.012 µM
COc1ccc(-c2nnc(Nc3ccc(Sc4ccnc5cc(OC)cnc45)cc3)c3ccccc23)cc1 [compound 357, N-(4-(7-methoxy-1,5-naphthyridin-4-ylthio)phenyl)-4-(4-methoxyphenyl)phthalazin-1-amine] | 0.029 µM | 0.012 µM
CCc1cc(-c2ccc(C)cc2)nnc1Nc1ccc(Sc2ccnc3cccnc23)cc1 [compound 358, N-(4-(1,5-naphthyridin-4-ylthio)phenyl)-4-ethyl-6-p-tolylpyridazin-3-amine] | 0.049 µM | 0.006 µM
Clc1ccc(-c2nnc(Nc3ccc(Sc4ccnc5[nH]ncc45)cc3)c3ccccc23)cc1 [compound 359, N-(4-(1H-pyrazolo[3,4-b]pyridin-4-ylthio)phenyl)-4-(4-chlorophenyl)phthalazin-1-amine] | 0.012 µM | 0.017 µM
CNC(=O)c1cc(Oc2ccc(Nc3nnc(-c4ccc(Cl)cc4)c4ccccc34)cc2)ccn1 [compound 361, 4-(4-(4-(4-chlorophenyl)phthalazin-1-ylamino)phenoxy)-N-methylpicolinamide] | 0.245 µM | 0.173 µM
c1ccc(-c2nnc(Nc3ccc(Sc4ccnc5[nH]cnc45)cc3)c3ccccc23)cc1 [compound 362, N-(4-(3H-imidazo[4,5-b]pyridin-7-ylthio)phenyl)-4-phenylphthalazin-1-amine] | 0.066 µM | 0.092 µM
Clc1ccc(-c2nnc(Nc3ccc(Sc4ccnc5[nH]cnc45)cc3)c3ccccc23)cc1 [compound 363, N-(4-(3H-imidazo[4,5-b]pyridin-7-ylthio)phenyl)-4-(4-chlorophenyl)phthalazin-1-amine] | 0.019 µM | 0.036 µM
COc1ccc2c(Sc3ccc(Nc4nnc(-c5ccc(Cl)cn5)c5ccccc45)cc3)ccnc2c1 [compound 364, 4-(5-chloropyridin-2-yl)-N-(4-(7-methoxyquinolin-4-ylthio)phenyl)phthalazin-1-amine] | 0.036 µM | 0.073 µM

Source: US8557816B2, “Aurora kinase modulators and method of use” (Amgen Inc., priority 2007, dated 2013)
